Experimental data published in ChEMBL document CHEMBL1201862, “PubChem BioAssay data set” (2004).
Activity calls are given as the source filed them.

Key:
[1] = target: Tumor necrosis factor (Homo sapiens, UniProt P01375); test: TNFa-triggered NF-kB activation inhibitors, SAR follow-up, cell-based, revised (AID 2337); type: functional
[2] = tested on: HEK293; test: cells; details: Homo sapiens
[3] = target: Nucleotide-binding oligomerization domain-containing protein 1 (Homo sapiens, UniProt Q9Y239); test: NOD1 signaling inhibitors, SAR follow-up, revised (AID 2333); type: functional
Chain of Nucleotide-binding oligomerization domain-containing protein 1 (Q9Y239 whole entry, the tested form may be a part): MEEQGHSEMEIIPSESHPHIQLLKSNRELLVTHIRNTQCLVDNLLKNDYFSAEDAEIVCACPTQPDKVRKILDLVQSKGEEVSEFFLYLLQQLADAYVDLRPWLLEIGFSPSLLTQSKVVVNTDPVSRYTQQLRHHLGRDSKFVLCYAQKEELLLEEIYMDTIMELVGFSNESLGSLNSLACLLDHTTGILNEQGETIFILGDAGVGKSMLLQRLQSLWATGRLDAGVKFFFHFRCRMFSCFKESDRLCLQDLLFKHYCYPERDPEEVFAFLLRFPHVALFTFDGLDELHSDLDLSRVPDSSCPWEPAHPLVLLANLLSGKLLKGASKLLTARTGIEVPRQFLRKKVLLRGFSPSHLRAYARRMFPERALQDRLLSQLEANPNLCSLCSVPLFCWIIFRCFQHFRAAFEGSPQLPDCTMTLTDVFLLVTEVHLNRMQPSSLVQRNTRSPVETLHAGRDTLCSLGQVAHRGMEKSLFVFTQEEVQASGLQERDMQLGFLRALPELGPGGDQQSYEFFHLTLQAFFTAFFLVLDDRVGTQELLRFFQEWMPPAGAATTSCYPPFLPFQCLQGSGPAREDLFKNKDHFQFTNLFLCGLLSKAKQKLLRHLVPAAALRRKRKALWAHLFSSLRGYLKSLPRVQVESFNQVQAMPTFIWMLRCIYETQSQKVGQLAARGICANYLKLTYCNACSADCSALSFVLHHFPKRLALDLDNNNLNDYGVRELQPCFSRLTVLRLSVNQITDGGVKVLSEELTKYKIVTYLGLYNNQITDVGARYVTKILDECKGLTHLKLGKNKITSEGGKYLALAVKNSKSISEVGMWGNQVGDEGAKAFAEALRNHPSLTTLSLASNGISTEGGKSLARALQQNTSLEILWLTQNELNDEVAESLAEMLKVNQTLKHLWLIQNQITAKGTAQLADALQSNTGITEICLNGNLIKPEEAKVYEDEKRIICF

[4] = target: Luciferin 4-monooxygenase (Photinus pyralis, UniProt P08659); test: In vitro luciferase assay using purified luciferase. [Related pubchem assays: 1299, 1270, 1295, 1375, 1287, 1281, 1293, 1291, 1289, 1280, 465, 1364, 1282, 1372, 1365, 1370, 1367, 1366, 1266, 1373, 1292, 1290, 1302, 1371, 1283, 1271, 1294, 1374, 1368, 1369 ]
Chain of Luciferin 4-monooxygenase (P08659 whole entry): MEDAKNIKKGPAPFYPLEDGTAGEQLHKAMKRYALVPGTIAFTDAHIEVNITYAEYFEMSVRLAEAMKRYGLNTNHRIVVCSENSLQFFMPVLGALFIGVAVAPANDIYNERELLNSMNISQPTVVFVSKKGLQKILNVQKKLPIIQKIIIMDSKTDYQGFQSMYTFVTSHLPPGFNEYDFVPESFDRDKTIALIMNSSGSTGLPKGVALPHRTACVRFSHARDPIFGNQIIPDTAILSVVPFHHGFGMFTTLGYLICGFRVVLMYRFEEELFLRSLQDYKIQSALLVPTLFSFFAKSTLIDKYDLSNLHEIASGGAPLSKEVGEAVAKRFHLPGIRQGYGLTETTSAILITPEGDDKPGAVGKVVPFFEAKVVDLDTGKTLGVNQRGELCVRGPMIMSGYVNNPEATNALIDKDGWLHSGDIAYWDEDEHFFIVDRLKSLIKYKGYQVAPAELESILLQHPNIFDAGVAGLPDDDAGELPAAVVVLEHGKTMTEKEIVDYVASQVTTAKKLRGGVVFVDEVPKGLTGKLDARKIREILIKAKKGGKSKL

[5] = inhibitors of SNCA 5'UTR-driven translation, confirmation, luminescence, H4 neuroglioblastoma cells, dose confirmation (AID 2454); type: functional, cell-based;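 further: H4 neuroglioblastoma cells carrying an alpha-synuclein 5'UTR luciferase reporter; potency for inhibition of the luciferase signal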
[6] = cytotoxicity in HEK-293T cells, dose response, cytotoxicity control for TCR NF-kB inhibitor project, luminescence, T-cell screen hits (AID 489026); type: functional, cell-based;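 further: cells exposed to compound about 14 hours before the viability readout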
[7] = tested on: A-375; test: MITF: Counter assay: A375 proliferation Measured in Cell-Based System Using Plate Reader - 2084-03_Inhibitor_Dose_DryPowder_Activity. [Related pubchem assays (depositor defined):AID488944]; type: functional; details: Homo sapiens
[8] = tested on: HEK293; test: PMA/Ionomycin induced NF-kB luciferase assay in 293- NF-kB-Luc stable cells. [Related pubchem assays: 1299, 1270, 1295, 1375, 1287, 1281, 1293, 1291, 1289, 1280, 465, 1364, 1282, 1372, 1365, 1370, 1367, 1366, 1269, 1373, 1292, 1290, 1302, 1371, 1283, 1271, 1294, 1374, 1368, 1369 ]; type: functional, cell-based; details: Homo sapiens
[9] = luciferase reporter signal reduction – luminescence, H4-C neuroglioblastoma cells, dose response (AID 2458); type: functional, cell-based;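 further: H4 neuroglioblastoma cells stably carrying a luciferase reporter gene fusion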
[10] = target: T1, Microphthalmia-associated transcription factor (Homo sapiens, UniProt O75030); test: TRPM1 promoter luciferase signal decrease, dose response, MITF inhibitor project, cell-based, SK-MEL-5, cherry-picked, set 3 (AID 493073); type: functional
T1 sequence (O75030 whole entry): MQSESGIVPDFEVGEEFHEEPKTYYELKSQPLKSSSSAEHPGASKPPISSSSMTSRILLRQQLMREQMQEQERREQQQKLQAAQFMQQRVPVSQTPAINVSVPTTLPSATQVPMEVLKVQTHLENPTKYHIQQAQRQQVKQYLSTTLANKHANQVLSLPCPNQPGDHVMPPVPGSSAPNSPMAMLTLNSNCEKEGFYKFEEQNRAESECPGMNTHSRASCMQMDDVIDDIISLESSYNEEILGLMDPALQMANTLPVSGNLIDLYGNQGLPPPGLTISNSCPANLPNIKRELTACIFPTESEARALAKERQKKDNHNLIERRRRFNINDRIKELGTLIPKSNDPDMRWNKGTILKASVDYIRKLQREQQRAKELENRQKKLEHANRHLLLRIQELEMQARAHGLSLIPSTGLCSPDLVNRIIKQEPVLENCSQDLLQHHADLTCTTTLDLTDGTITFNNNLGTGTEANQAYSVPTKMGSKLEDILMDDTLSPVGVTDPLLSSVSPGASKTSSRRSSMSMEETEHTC

[11] = tested on: HEK293; test: Cytotoxicity assay in HEK293 cells. [Related pubchem assays (depositor defined):AID1266, AID1269, AID1270, AID1271, AID1280, AID1281, AID1282, AID1283, AID1287, AID1289, AID1290, AID1291, AID1292, AID1293, AID1294, AID1295, AID1299, AID1302, AID1364, AID1365, AID1366, AID1367, AID1369, AID1370, AID1371, AID1372, AID1373, AID1374, AID1375, AID1384 …; type: functional, cell-based; details: Homo sapiens
[12] = tested on: HEK293; test: PMA/Ionomycin-induced IL-8 production in HEK293- NF-kB-Luc stable cells. [Related pubchem assays: 1299, 1295, 1375, 1287, 1281, 1293, 1291, 1289, 1280, 465, 1364, 1282, 1372, 1365, 1367, 1366, 1266, 1269, 1373, 1292, 1290, 1302, 1371, 1283, 1271, 1294, 1374, 1368, 1369 ]; type: functional, cell-based; details: Homo sapiens
[13] = inhibitors of SNCA 5'UTR-driven reporter translation, confirmation, H4 neuroglioma cells, luminescence (AID 1988); type: functional, cell-based
[14] = cells; type: functional, cell-based
[15] = tested on: A-375; test: A375 melanoma cell viability reduction, dose response, counter-screen for MITF modulator project, cherry-pick samples, set 2 (AID 540335); type: functional, cell-based; details: Homo sapiens
[16] = tested on: BJ; test: cells; type: functional, cell-based; details: Homo sapiens
[17] = tested on: HEK293; test: TNF Induced NF-kB Luciferase in 293-NF-kB-Luc Stable Cells. [Related pubchem assays: 1266, 1299, 1269, 1373, 1292, 1290, 1302, 1371, 1283, 1270, 1295, 1271, 1375, 1294, 1374, 1281, 1293, 1291, 1289, 1280, 465, 1368, 1364, 1282, 1372, 1365, 1369, 1370, 1367, 1366 ]; type: functional, cell-based; details: Homo sapiens
[18] = inhibitors of firefly luciferase expression or activity, dose response, H4 neuroglioma cells, luminescence (AID 1990); type: functional, cell-based
[19] = target: Cytochrome P450 2C9 (Homo sapiens, UniProt P11712); details: Potency
Chain of Cytochrome P450 2C9 (P11712 whole entry): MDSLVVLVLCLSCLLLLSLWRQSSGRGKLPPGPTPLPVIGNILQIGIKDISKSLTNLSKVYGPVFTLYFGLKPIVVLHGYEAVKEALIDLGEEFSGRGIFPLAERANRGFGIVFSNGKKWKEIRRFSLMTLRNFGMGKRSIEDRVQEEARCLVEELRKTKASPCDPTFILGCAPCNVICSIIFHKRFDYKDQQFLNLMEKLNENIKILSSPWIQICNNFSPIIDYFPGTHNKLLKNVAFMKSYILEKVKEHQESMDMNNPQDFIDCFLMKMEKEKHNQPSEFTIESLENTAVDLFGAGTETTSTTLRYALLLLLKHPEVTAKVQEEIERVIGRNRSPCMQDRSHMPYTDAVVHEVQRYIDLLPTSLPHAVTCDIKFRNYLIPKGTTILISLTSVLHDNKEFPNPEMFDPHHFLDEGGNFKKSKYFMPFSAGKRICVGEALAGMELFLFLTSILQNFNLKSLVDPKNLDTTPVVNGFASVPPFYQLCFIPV

[20] = target: Cytochrome P450 2D6 (Homo sapiens, UniProt P10635); test: qHTS Assay for Inhibitors and Substrates of Cytochrome P450 2D6. [Related pubchem assays: 410 ]; type: ADME; details: read-out: Potency
Chain of Cytochrome P450 2D6 (P10635 whole entry): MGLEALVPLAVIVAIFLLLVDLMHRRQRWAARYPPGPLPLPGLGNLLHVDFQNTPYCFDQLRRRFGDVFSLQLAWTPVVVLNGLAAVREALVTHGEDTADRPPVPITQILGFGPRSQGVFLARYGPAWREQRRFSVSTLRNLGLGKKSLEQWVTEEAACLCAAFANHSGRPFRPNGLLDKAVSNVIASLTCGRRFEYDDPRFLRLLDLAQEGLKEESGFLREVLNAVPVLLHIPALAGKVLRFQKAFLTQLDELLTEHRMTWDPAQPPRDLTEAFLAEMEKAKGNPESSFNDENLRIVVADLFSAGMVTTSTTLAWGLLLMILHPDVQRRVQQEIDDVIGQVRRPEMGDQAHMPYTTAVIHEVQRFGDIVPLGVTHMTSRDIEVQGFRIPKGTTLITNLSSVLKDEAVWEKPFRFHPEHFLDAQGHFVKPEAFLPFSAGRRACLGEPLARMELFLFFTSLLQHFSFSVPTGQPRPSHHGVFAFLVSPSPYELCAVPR

[21] = target: Cytochrome P450 2C19 (Homo sapiens, UniProt P33261); test: qHTS Assay for Inhibitors and Substrates of Cytochrome P450 2C19. [Related pubchem assays: 410 ]; type: ADME; details: read-out: Potency
Chain of Cytochrome P450 2C19 (P33261 whole entry): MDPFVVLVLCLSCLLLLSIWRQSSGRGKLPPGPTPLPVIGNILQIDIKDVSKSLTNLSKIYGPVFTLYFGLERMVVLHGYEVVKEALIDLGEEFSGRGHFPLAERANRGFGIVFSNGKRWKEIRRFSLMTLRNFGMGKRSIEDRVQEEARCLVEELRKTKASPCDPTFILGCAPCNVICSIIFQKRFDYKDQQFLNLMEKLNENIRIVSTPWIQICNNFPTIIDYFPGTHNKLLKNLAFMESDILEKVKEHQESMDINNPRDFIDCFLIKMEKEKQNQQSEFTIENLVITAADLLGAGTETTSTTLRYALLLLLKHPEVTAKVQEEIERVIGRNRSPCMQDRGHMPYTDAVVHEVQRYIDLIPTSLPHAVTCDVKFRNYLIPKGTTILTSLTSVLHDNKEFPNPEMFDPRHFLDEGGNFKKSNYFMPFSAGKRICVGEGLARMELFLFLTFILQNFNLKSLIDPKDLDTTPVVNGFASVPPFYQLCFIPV

Chain of Tumor necrosis factor (P01375 whole entry): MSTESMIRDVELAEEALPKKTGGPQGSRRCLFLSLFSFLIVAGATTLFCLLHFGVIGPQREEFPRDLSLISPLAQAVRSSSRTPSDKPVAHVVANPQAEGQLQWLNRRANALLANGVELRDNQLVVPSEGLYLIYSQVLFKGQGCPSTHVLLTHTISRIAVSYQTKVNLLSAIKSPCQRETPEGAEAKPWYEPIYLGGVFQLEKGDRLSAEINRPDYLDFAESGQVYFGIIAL

O=C(Nc1ccc(Cl)c([N+](=O)[O-])c1)c1ccc2ccccc2c1O
IC50 [1]: 0.87 µM (active) | IC50 [2]: 4.04 µM (active) | IC50 [3]: 0.692 µM (active)

COc1cc(C2C(C#N)=C(N)Oc3cc(N(C)C)ccc32)cc2c1OCO2 (stereo unspecified)
EC50 [4]: > 8 µM (not active) | EC50 [5]: 0.106 µM (active) | IC50 [6]: > 80 µM (inactive) | AC50 [7]: > 35 µM (active) | EC50 [8]: 2.18 µM (active) | EC50 [9]: 0.096 µM (active) | AC50 [10]: 0.601 µM (active) | EC50 [11]: > 8 µM (inactive) | EC50 [12]: > 8 µM (not active) | EC50 [13]: < 0.1 µM (active) | EC50 [14]: 0.116 µM (active) | AC50 [15]: > 35 µM (active) | EC50 [16]: 121 µM (inconclusive) | EC50 [17]: > 8 µM (not active) | EC50 [18]: < 0.1 µM (active)

CC[C@H]1C(=O)OC[C@@H]1Cc1cncn1C
AC50 [19]: 12.6 µM (inconclusive)

COc1ccc2oc(-c3ccccc3)c(OC)c(=O)c2c1 [3,6-DIMETHOXYFLAVONE]
AC50 [20]: 39.8 µM (inconclusive) | AC50 [21]: 10 µM (inconclusive)
